{"source": "patent US9018006B2", "about": "“Stable Tregs and related materials and methods” (The University of Toledo, priority 2010, dated 2015)", "key": {"iTreg cells": {"system": "iTreg cells", "test": "Stability of Foxp3 expression of induced iTregs after re-stimulation with anti-CD3/anti-CD28 mAbs", "type": "cell-based, mouse", "conditions": "after repeated re-stimulation with anti-CD3/anti-CD28 mAbs; nTreg cells 80%", "protocol": "FIGS. 4A-4B. Stability of Foxp3 expression and suppressor function of the two-phase induced iTreg T cells. The nTreg cells were isolated from spleen of naïve mice (left panel). Naïve mouse CD4^+Foxp3/GFP^− cells (1×10^6/ml) cultured with APCs were stimulated with anti-CD3 mAb in the presence of 5 ng/ml TGF-β, 5 μg/ml anti-IL-2 mAb (S4B6), or 100 nM CP-690,550 for 3 days. After washing, fresh medium was supplemented with 10 units/ml rIL-2 and cultured for additional 3 days (total 6 day culture). All these 4 populations were subsequently re-stimulated with anti-CD3 mAb/anti-CD28 mAb for 3 days and examined by FACscan for Foxp3 expression (FIG. 4A). Purified naive CD4^+Foxp3/GFP^− cells labeled with CFSE were used as T-effector (Teff) cells and mixed with re-stimulated nTreg cells or re-stimulated CP-690,550-induced iTreg cells. Proliferation was measured by the number of Teff cell divisions (FIG. 4B).\nFurthermore, the stability of Foxp3 expression of anti-IL-2 mAb-(S4B6) or Jak3 inhibitor (CP-690,550)-induced iTregs was compared with TGF-β-induced iTregs."}, "T effector (Teff) cells": {"system": "T effector (Teff) cells", "conditions": "Teff:Treg 1:1, after repeated re-stimulation"}, "[1]": {"system": "Naïve CD4+ Foxp3/GFP− cells", "test": "Two-phase induction/expansion of iTregs, Method 1 (anti-CD3/anti-CD28 plus inhibitor, then rIL-2)", "type": "cell-based, mouse"}, "transplant patients": {"system": "transplant patients", "conditions": "compared with OKT3 mAb; cited from earlier work"}}}
{"compound": "C[C@@H]1CCN(C(=O)CC#N)C[C@@H]1N(C)c1ncnc2[nH]ccc12", "note": "[CP-690,550]", "values": [{"measurement": "induced iTreg cells that maintained Foxp3 expression", "setting": "iTreg cells", "value": 75, "unit": "%"}, {"measurement": "suppressor function of induced iTreg cells", "setting": "T effector (Teff) cells", "value": "maintained very potent suppressor function"}, {"measurement": "Foxp3 expression during proliferation (cell divisions)", "setting": "[1]; 6-day culture", "value": "maintained similar levels of Foxp3 expression"}, {"measurement": "number of CD4+CD25+Foxp3/GFP+ cells on day 6 of culture", "setting": "[1]; from initial 0.05×10^6 CD4+ Foxp3/GFP− cells", "value": "0.4×10^6 cells"}, {"measurement": "expansion in the number of iTreg cells", "setting": "[1]; initial 3-day exposure, day 6 of culture", "value": 8, "unit": "fold"}]}
{"compound": "TGF-β", "values": [{"measurement": "induced iTreg cells that maintained Foxp3 expression", "setting": "iTreg cells", "value": 4.3, "unit": "%"}]}
{"compound": "OKT3 mAb: mouse anti-human CD3 agonist mAb", "values": [{"measurement": "adverse effects in patients", "setting": "transplant patients", "value": "elicited the release of many cytokines causing flu-like symptoms"}]}
{"compound": "O=C(N/N=C/c1coc2ccccc2c1=O)c1cccnc1", "note": "[Stat5 inhibitor]", "values": [{"measurement": "naïve CD4+ Foxp3/GFP− cells converted into CD4+CD25+Foxp3/GFP+ iTregs", "setting": "[1]; 100 ng/ml Stat5 inhibitor first 3 days, then rIL-2 3 days, untreated controls 7%", "value": 36, "unit": "%"}]}
